Assays:
[1] = tested on: bedstraw; test: Test B pre/postemergence bedstraw; assay type: in vivo, Galium aparine
Method in brief: (§1)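 Test chemicals in a non-phytotoxic solvent mixture with surfactant were sprayed preemergence onto planted seeds and postemergence onto plants 2 to 18 cm tall (1- to 4-leaf stage). After twelve to sixteen days in a greenhouse, injury was visually rated against untreated controls from 0 (no effect) to 10 (complete control).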

[2] = tested on: blackgrass; test: Test B pre/postemergence blackgrass; assay type: in vivo, Alopecurus myosuroides
Method in brief: as §1

[3] = tested on: surinam grass; test: Test B pre/postemergence surinam grass; assay type: in vivo, Brachiaria decumbens
Method in brief: as §1

[4] = tested on: cocklebur; test: Test B pre/postemergence cocklebur; assay type: in vivo, Xanthium strumarium
Method in brief: as §1

[5] = tested on: crabgrass; test: Test B pre/postemergence crabgrass; assay type: in vivo, Digitaria sanguinalis
Method in brief: as §1

[6] = tested on: giant foxtail; test: Test B pre/postemergence giant foxtail; assay type: in vivo, Setaria faberii
Method in brief: as §1

[7] = tested on: morningglory; test: Test B pre/postemergence morningglory; assay type: in vivo, Ipomoea hederacea
Method in brief: as §1

[8] = tested on: pigweed; test: Test B pre/postemergence pigweed; assay type: in vivo, Amaranthus retroflexus
Method in brief: as §1

[9] = tested on: sugar beet; test: Test B pre/postemergence sugar beet; assay type: in vivo, Beta vulgaris
Method in brief: as §1

[10] = tested on: velvetleaf; test: Test B pre/postemergence velvetleaf; assay type: in vivo, Abutilon theophrasti
Method in brief: as §1

[11] = tested on: wheat; test: Test B pre/postemergence wheat; assay type: in vivo, Triticum aestivum
Method in brief: as §1

[12] = tested on: wild oat; test: Test B pre/postemergence wild oat; assay type: in vivo, Avena fatua
Method in brief: as §1

[13] = tested on: purple nutsedge; test: Test B pre/postemergence purple nutsedge; assay type: in vivo, Cyperus rotundus
Method in brief: as §1

[14] = tested on: rice; test: Test B flood test rice; assay type: in vivo, Oryza sativa
Method in brief: (§2)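 Flood test on plants grown to the 2-leaf stage; treated plants kept in greenhouse twelve to sixteen days, then visually rated against controls on a 0 (no effect) to 10 (complete control) scale.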

[15] = tested on: duck salad; test: Test B flood test duck salad; assay type: in vivo, Heteranthera limosa
Method in brief: as §2

[16] = tested on: bamyardgrass; test: Test B flood test barnyardgrass; assay type: in vivo, Echinochloa crus-galli
Method in brief: as §2

[17] = Preemergence, Rate 62 g/ha, scale of 0 to 10 where 0 is no effect and 10 is complete control
[18] = Preemergence, Rate 500 g/ha, scale of 0 to 10 where 0 is no effect and 10 is complete control
[19] = Rate 62 g/ha, Postemergence, scale 0 to 10 (0 no effect, 10 complete control)
[20] = Rate 125 g/ha, Postemergence, scale of 0 to 10 where 0 is no effect and 10 is complete control
[21] = Preemergence, Rate 250 g/ha, scale of 0 to 10 where 0 is no effect and 10 is complete control
[22] = Rate 250 g/ha, Postemergence, scale of 0 to 10 where 0 is no effect and 10 is complete control
[23] = Rate 500 g/ha, Postemergence, scale 0 to 10, 0 no effect, 10 complete control
[24] = Rate 62 g/ha, headed Pre-emergence (flood test species), scale 0 to 10 (0 no effect, 10 complete control)
[25] = Rate 125 g/ha, Pre-emergence, flood test species, scale 0 to 10 where 0 is no effect and 10 is complete control
[26] = Rate 250 g/ha, Pre-emergence, flood-test species, scale 0 to 10, 0 is no effect, 10 is complete control
[27] = Rate 500 g/ha, Pre-emergence, flood test species, scale 0 to 10 (0 no effect, 10 complete control)

Question: What does the source list for CC(C)N(C(=O)n1oc(=O)n(Cc2nnsc2Cl)c1=O)c1ccc(F)cc1F [Compound 320]?
Answer: Bedstraw plant response rating [1, 17]: 0; Bedstraw plant response rating [1, 18]: 0; Bedstraw plant response rating [1, 19]: 0; Bedstraw plant response rating [1, 20]: 0; Blackgrass plant response rating [2, 17]: 0; Blackgrass plant response rating (0 to 10 scale) ([2]; Preemergence, Rate 125 g/ha): 2; Blackgrass plant response rating [2, 21]: 5; Blackgrass plant response rating [2, 18]: 6; Blackgrass plant response rating [2, 19]: 0; Blackgrass plant response rating [2, 20]: 0; Plant response rating, Blackgrass [2, 22]: 0; Blackgrass plant response rating [2, 23]: 0; B. signalgrass plant response rating [3, 17]: 0; B. signalgrass plant response rating (0 to 10 scale, 0 is no effect, 10 is complete control) ([3]; Preemergence, Rate 125 g/ha): 1; B. signalgrass plant response rating [3, 21]: 2; B. signalgrass plant response rating [3, 18]: 3; B. signalgrass plant response rating [3, 19]: 0; B. signalgrass plant response rating [3, 20]: 0; Plant response rating, B. signalgrass [3, 22]: 0; B. signalgrass plant response rating [3, 23]: 0; Cocklebur plant response rating [4, 17]: 0; Cocklebur plant response rating (0 to 10 scale) ([4]; Preemergence, Rate 125 g/ha): 0; Cocklebur plant response rating [4, 18]: 0; Cocklebur plant response rating [4, 19]: 0; Cocklebur plant response rating [4, 20]: 0; Plant response rating, Cocklebur [4, 22]: 0; Cocklebur plant response rating [4, 23]: 0; Crabgrass plant response rating [5, 17]: 2; Crabgrass plant response rating (0 to 10 scale) ([5]; Preemergence, Rate 125 g/ha): 3; Crabgrass plant response rating [5, 21]: 3; Crabgrass plant response rating [5, 18]: 7; Crabgrass plant response rating [5, 19]: 0; Crabgrass plant response rating [5, 20]: 0; Plant response rating, Crabgrass [5, 22]: 0; Giant foxtail plant response rating [6, 17]: 0; Giant foxtail plant response rating [6, 21]: 6; Giant foxtail plant response rating [6, 18]: 7; Giant foxtail plant response rating [6, 19]: 0; Giant foxtail plant response rating [6, 20]: 0; Plant response rating, Giant foxtail [6, 22]: 0; Morningglory plant response rating [7, 17]: 0; Morningglory plant response rating (0 to 10 scale) ([7]; Preemergence, Rate 125 g/ha): 0; Morningglory plant response rating [7, 21]: 0; Morningglory plant response rating [7, 18]: 0; Morningglory plant response rating [7, 19]: 1; Morningglory plant response rating [7, 20]: 1; Plant response rating, Morningglory [7, 22]: 3; Redroot pigweed plant response rating [8, 17]: 0; Redroot pigweed plant response rating (0 to 10 scale) ([8]; Preemergence, Rate 125 g/ha): 0; Redroot pigweed plant response rating [8, 21]: 0; Redroot pigweed plant response rating [8, 18]: 0; Redroot pigweed plant response rating [8, 19]: 3; Redroot pigweed plant response rating [8, 20]: 6; Plant response rating, Redroot pigweed [8, 22]: 6; Sugarbeets plant response rating [9, 17]: 0; Sugarbeets plant response rating (0 to 10 scale) ([9]; Preemergence, Rate 125 g/ha): 0; Sugarbeets plant response rating [9, 21]: 0; Sugarbeets plant response rating [9, 18]: 0; Sugarbeets plant response rating [9, 19]: 0; Sugarbeets plant response rating [9, 20]: 2; Plant response rating, Sugarbeets [9, 22]: 2; Velvetleaf plant response rating [10, 17]: 0; Velvetleaf plant response rating (0 to 10 scale) ([10]; Preemergence, Rate 125 g/ha): 0; Velvetleaf plant response rating [10, 21]: 0; Velvetleaf plant response rating [10, 18]: 0; Velvetleaf plant response rating [10, 19]: 0; Velvetleaf plant response rating [10, 20]: 0; Plant response rating, Velvetleaf [10, 22]: 0; Wheat plant response rating [11, 17]: 0; Wheat plant response rating (0 to 10 scale) ([11]; Preemergence, Rate 125 g/ha): 0; Wheat plant response rating [11, 21]: 0; Wheat plant response rating [11, 18]: 0; Wheat plant response rating [11, 19]: 0; Wheat plant response rating [11, 20]: 0; Plant response rating, Wheat [11, 22]: 0; Wild oats plant response rating [12, 17]: 0; Wild oats plant response rating (0 to 10 scale) ([12]; Preemergence, Rate 125 g/ha): 0; Wild oats plant response rating [12, 21]: 0; Wild oats plant response rating [12, 18]: 0; Wild oats plant response rating [12, 19]: 0; Wild oats plant response rating [12, 20]: 0; Plant response rating, Wild oats [12, 22]: 0; Nutsedge plant response rating [13, 17]: 0; Nutsedge plant response rating (0 to 10 scale) ([13]; Preemergence, Rate 125 g/ha): 0; Nutsedge plant response rating [13, 21]: 0; Nutsedge plant response rating [13, 18]: 0; Nutsedge plant response rating [13, 19]: 0; Nutsedge plant response rating [13, 20]: 0; Plant response rating, Nutsedge [13, 22]: 0; Rice plant response rating [14, 24]: 0; Rice plant response rating [14, 25]: 0; Rice plant response rating [14, 26]: 0; Rice plant response rating [14, 27]: 0; Ducksalad plant response rating [15, 24]: 0; Ducksalad plant response rating [15, 25]: 0; Ducksalad plant response rating [15, 26]: 0; Ducksalad plant response rating [15, 27]: 0; Barnyardgrass plant response rating [16, 24]: 0; Barnyardgrass plant response rating [16, 25]: 0; Barnyardgrass plant response rating [16, 26]: 0; Barnyardgrass plant response rating [16, 27]: 0

Source: US6737383B1, “Herbicidal oxadiazolidines” (priority 1999, dated 2004)
